Usually IC50 stands for the point on the concentration scale where inhibition reaches its midpoint.

This is an account of results in patent US8501755B2, “Tetrahydropyridothienopyrimidine compounds and methods of use thereof” (Bayer Intellectual Property GmbH, priority 2006, dated 2013).

Common to all, as to assay type: cell-based
One experiment concerns H1975 cells. Nature of the experiment: In vitro tumor cell proliferation assay (Cell Titer-Glo) in H1975 cells. Particulars: NCI-H1975; H1975 human NSCLC expressing mutant HER1 (L858R,T790M); 72 hours exposure; read-out: IC50, activities in H 1975 cell lines. In outline:
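After 72 h compound exposure at 37° C (top 10 uM down to 64 pM, 0.1% DMSO), viability of EGFR L858R/T790M-mutant H1975 cells was read as ATP luminescence.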
Background: ATP-based viability assays read luminescence as a measure of living cells.

In the next experiment the test system is A431 cells. Nature of the experiment: In vitro tumor cell proliferation assay (Cell Titer-Glo) in A431 cells. Particulars: Homo sapiens, A-431, 72 h, A431 human epidermoid carcinoma overexpressing HER1; 72 hours exposure; read-out: IC50, activities in A431 cell lines. Put shortly: (§1)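 Viability after 72 h drug exposure at 37 °C was read as CellTiter-Glo ATP luminescence, giving IC50. Cells (2.5×10^3/well, RPMI + 10% FBS) were compound-treated one day post-seeding, 0.1% DMSO final: A431 overexpresses HER1, N87 overexpresses HER2 and HER1.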

The test system of the next experiment is N87. Nature of the experiment: In vitro tumor cell proliferation assay (Cell Titer-Glo) in N87 cells. Particulars: N87 human gastric carcinoma overexpressing HER2 and HER1; 72 hours exposure; read-out: IC50, activities in N87 cell lines. Put shortly: as §1

For the molecule `CN(C)C/C=C/C(=O)N1CCc2c(sc3ncnc(Nc4ccc(OCc5ccccn5)c(Cl)c4)c23)C1` [Example 3, N-[3-chloro-4-(pyridin-2-ylmethoxy)phenyl]-7-[(2E)-4-(dimethylamino)but-2-enoyl]-5,6,7,8-tetrahydropyrido[4′,3′:4,5]thieno[2,3-d]pyrimidin-4-amine], the values for the IC50 in the experiment on H1975 cells, with A431 cells and with N87 were 200 to 1000 nM, under 200 nM and under 200 nM, respectively.

In the case of `O=C(C#CCN1CCOCC1)N1CCc2c(sc3ncnc(Nc4ccc(OCc5ccccn5)c(Cl)c4)c23)C1` [Example 136, N-[3-chloro-4-(pyridin-2-ylmethoxy)phenyl]-7-(4-morpholin-4-ylbut-2-ynoyl)-5,6,7,8-tetrahydropyrido [4′,3′:4,5]thieno[2,3-d]pyrimidin-4-amine], the IC50 in the experiment on H1975 cells is 1000 to 10000 nM; in the experiment on A431 cells, 1000 to 10000 nM; in the experiment on N87, under 200 nM.

As for `CN(C/C=C/C(=O)N1CCc2c(sc3ncnc(Nc4ccc5c(cnn5Cc5ccccn5)c4)c23)C1)C(C)(C)C` [Example 128, 7-{(2E)-4-[tert-butyl(methyl)amino]but-2-enoyl}-N-[1-(pyridin-2-ylmethyl)-1H-indazol-5-yl]-5,6,7,8-tetrahydropyrido [4′,3′:4,5]thieno[2,3-d]pyrimidin-4-amine], the IC50 is 200 to 1000 nM with H1975 cells, 200 to 1000 nM in the experiment on A431 cells and under 200 nM in the experiment with N87.

`CN(C)C/C=C/C(=O)N1CCc2c(sc3ncnc(Nc4ccc(F)cc4)c23)C1` [Example 175, 7-[(2E)-4-(dimethylamino)but-2-enoyl]-N-(4-fluorophenyl)-5,6,7,8-tetrahydropyrido [4′,3′:4,5]thieno[2,3-d]pyrimidin-4-amine]: the IC50 in the experiment on H1975 cells is 1000 to 10000 nM; in the experiment with A431 cells, 1000 to 10000 nM; in the experiment on N87, under 200 nM.

With `CN(C)C/C=C/C(=O)N1CCc2c(sc3ncnc(Nc4cc(F)cc(Cl)c4)c23)C1` [Example 181, N-(3-chloro-5-fluorophenyl)-7-[(2E)-4-(dimethylamino)but-2-enoyl]-5,6,7,8-tetrahydropyrido [4′,3′:4,5]thieno[2,3-d]pyrimidin-4-amine], the IC50 was 1000 to 10000 nM in the experiment on H1975 cells, 1000 to 10000 nM in the experiment on A431 cells and under 200 nM with N87.

As for `CCN(CC)C/C=C/C(=O)N1CCc2c(sc3ncnc(Nc4ccc5c(ccn5Cc5ccccn5)c4)c23)C1` [Example 121, 7-[(2E)-4-(diethylamino)but-2-enoyl]-N-[1-(pyridin-2-ylmethyl)-1H-indol-5-yl]-5,6,7,8-tetrahydropyrido [4′,3′:4,5]thieno[2,3-d]pyrimidin-4-amine], the IC50 is 200 to 1000 nM in the experiment on H1975 cells, 200 to 1000 nM with A431 cells and under 200 nM in the experiment on N87.

As for `CN(C)C/C=C/C(=O)N1CCc2c(sc3ncnc(Nc4ccc(F)c(Cl)c4)c23)C1` [Example 7, N-(3-chloro-4-fluorophenyl)-7-[(2E)-4-(dimethylamino)but-2-enoyl]-5,6,7,8-tetrahydropyrido[4′,3′:4,5]thieno[2,3-d]pyrimidin-4-amine], the figures for the IC50 with H1975 cells, in the experiment with A431 cells and in the experiment on N87 were 200 to 1000 nM, under 200 nM and under 200 nM, respectively.

Take `CC(C)N(C/C=C/C(=O)N1CCc2c(sc3ncnc(Nc4cccc(Br)c4)c23)C1)C(C)C` [Example 208, N-(3-bromophenyl)-7-[(2E)-4-(diisopropylamino)but-2-enoyl]-5,6,7,8-tetrahydropyrido [4′,3:4,5]thieno[2,3-d]pyrimidin-4-amine]: the IC50 with H1975 cells is 200 to 1000 nM; in the experiment with A431 cells, 200 to 1000 nM; with N87, under 200 nM.

On to `CN(C)C/C=C/C(=O)N1CCc2c(sc3ncnc(Nc4ccc5c(cnn5Cc5ccccn5)c4)c23)C1` [Example 109, 7-[(2E)-4-(dimethylamino)but-2-enoyl]-N-[1-(pyridin-2-ylmethyl)-1H-indazol-5-yl]-5,6,7,8-tetrahydropyrido [4′,3′:4,5]thieno[2,3-d]pyrimidin-4-amine], for which the IC50 is 200 to 1000 nM in the experiment on H1975 cells, 200 to 1000 nM in the experiment with A431 cells and under 200 nM in the experiment on N87.

Take `CN(C)CC/C=C/C(=O)N1CCc2c(sc3ncnc(Nc4ccc(F)c(Cl)c4)c23)C1` [Example 153]: the IC50 in the experiment with H1975 cells was 1000 to 10000 nM; in the experiment with A431 cells, 1000 to 10000 nM; in the experiment with N87, under 200 nM.

As for `CC(C)CN(C)C/C=C/C(=O)N1CCc2c(sc3ncnc(Nc4ccc(OCc5ccccn5)c(Cl)c4)c23)C1` [Example 66, N-[3-chloro-4-(pyridin-2-ylmethoxy)phenyl]-7-{(2E)-4-[isobutyl(methyl)amino]but-2-enoyl}-5,6,7,8-tetrahydropyrido [4′,3′:4,5]thieno[2,3-d]pyrimidin-4-amine], the IC50 with H1975 cells is 200 to 1000 nM; with A431 cells, 200 to 1000 nM; in the experiment on N87 it was under 200 nM.

On to `O=C(/C=C/CN1CCCCC1)N1CCc2c(sc3ncnc(Nc4ccc5c(cnn5Cc5cccc(F)c5)c4)c23)C1` [Example 101], for which the values for the IC50 in the experiment with H1975 cells, in the experiment with A431 cells and in the experiment with N87 were 200 to 1000 nM, 200 to 1000 nM and under 200 nM, respectively.

For the molecule `CC1CN(C/C=C/C(=O)N2CCc3c(sc4ncnc(Nc5ccc(F)c(Cl)c5)c34)C2)CC(C)O1` (stereo not drawn) [Example 41], the IC50 in the experiment on H1975 cells is 1000 to 10000 nM; with A431 cells, 200 to 1000 nM; in the experiment with N87, under 200 nM.

As for `CC(C)N(C)C/C=C/C(=O)N1CCc2c(sc3ncnc(Nc4ccc5c(cnn5Cc5ccccn5)c4)c23)C1` [Example 116, 7-{(2E)-4-[isopropyl(methyl)amino]but-2-enoyl}-N-[1-(pyridin-2-ylmethyl)-1H-indazol-5-yl]-5,6,7,8-tetrahydropyrido [4′,3′:4,5] thieno[2,3-d]pyrimidin-4-amine], the 50% inhibitory concentration (IC50) is 200 to 1000 nM with H1975 cells, 200 to 1000 nM in the experiment on A431 cells and under 200 nM in the experiment on N87.

As to `CN(C)C/C=C/C(=O)N1CCc2c(sc3ncnc(Nc4ccc(Br)cc4)c23)C1` [Example 184, N-(4-bromophenyl)-7-[(2E)-4-(dimethylamino)but-2-enoyl]-5,6,7,8-tetrahydropyrido [4′,3′:4,5]thieno[2,3-d]pyrimidin-4-amine.], the IC50 in the experiment on H1975 cells was 1000 to 10000 nM; in the experiment on A431 cells, 200 to 1000 nM; with N87 it was under 200 nM.

In the case of `O=C(/C=C/CN1CCCCC1)N1CCc2c(sc3ncnc(Nc4ccc(OCc5cccnc5)c(Cl)c4)c23)C1` [Example 88, N-[3-chloro-4-(pyridin-3-ylmethoxy)phenyl]-7-[(2E)-4-piperidin-1-ylbut-2-enoyl]-5,6,7,8-tetrahydropyrido [4′3′:4,5]thieno[2,3-d]pyrimidin-4-amine], the IC50 in the experiment on H1975 cells was 200 to 1000 nM; in the experiment with A431 cells, 1000 to 10000 nM; in the experiment on N87, under 200 nM.

For `CC(O)CN(C/C=C/C(=O)N1CCc2c(sc3ncnc(Nc4ccc(F)c(Cl)c4)c23)C1)CC(C)O` (stereo not drawn) [Example 39, 1,1′-{[(2E)-4-{4-[(3-chloro-4-fluorophenyl)amino]-5,8-dihydropyrido [4′,3′:4,5]thieno[2,3-d]pyrimidin-7(6H)-yl}-4-oxobut-2-en-1-yl]imino}dipropan-2-ol], the IC50 in the experiment on H1975 cells is 1000 to 10000 nM; with A431 cells it was 1000 to 10000 nM; with N87, under 200 nM.

`O=C(/C=C/CN1CCOCC1)N1CCc2c(sc3ncnc(Nc4ccc(Cl)c(Cl)c4)c23)C1` [Example 191, N-(3,4-dichlorophenyl)-7-[{2E)-4-morpholin-4-ylbut-2-enoyl]-5,6,7,8-tetrahydropyrido [4′,3′:4,5]thieno[2,3-d]pyrimidin-4-amine]: the values for the IC50 in the experiment on H1975 cells, in the experiment with A431 cells and with N87 were 1000 to 10000 nM, 200 to 1000 nM and under 200 nM, respectively.

In the case of `CCN(C)C/C=C/C(=O)N1CCc2c(sc3ncnc(Nc4ccc(OCc5ccccn5)c(Cl)c4)c23)C1` [Example 49, N-(3-chloro-4-(pyridin-2-ylmethoxy)phenyl]-7-{(2E)-4-[ethyl(methyl)amino]but-2-enoyl}-5,6,7,8-tetrahydropyrido [4′,3′:4,5]thieno[2,3-d]pyrimidin-4-amine], the IC50 in the experiment on H1975 cells is 200 to 1000 nM; in the experiment with A431 cells, 200 to 1000 nM; with N87 it was under 200 nM.

As for `O=C(/C=C/CN1CCCCC1)N1CCc2c(sc3ncnc(Nc4ccc(Cl)c(Cl)c4)c23)C1` [Example 195, N-(3,4-dichlorophenyl)-7-[(2E)-4-piperidin-1-ylbut-2-enoyl]-5,6,7,8-tetrahydropyrido [4′,3′:4,5]thieno[2,3-d]pyrimidin-4-amine], the IC50 with H1975 cells, in the experiment with A431 cells and in the experiment with N87 was under 200 nM throughout.

On to `C#Cc1cccc(Nc2ncnc3sc4c(c23)CCN(C(=O)C2=CCCN(C)C2)C4)c1` [Example 31, N-(3-ethynylphenyl)-7-[(1-methyl-1,2,5,6-tetrahydropyridin-3-yl)carbonyl]-5,6,7,8-tetrahydropyrido [4′,3′:4,5]thieno[2,3-d]pyrimidin-4-amine], for which the IC50 with H1975 cells fell in the range of 1000 to 10000 nM; in the experiment on A431 cells, 1000 to 10000 nM; in the experiment on N87, 200 to 5000 nM.

`CN(C)C/C=C/C(=O)N1CCc2c(sc3ncnc(Nc4ccc5c(ccn5Cc5ccccc5)c4)c23)C1` [Example 93, N-(1-benzyl-1H-indol-5-yl)-7-[(2E)-4-(dimethylamino)but-2-enoyl]-5,6,7,8-tetrahydropyrido [4′,3′:4,5]thieno[2,3-d]pyrimidin-4-amine]: the IC50 is under 200 nM with H1975 cells, 200 to 1000 nM in the experiment on A431 cells and under 200 nM in the experiment with N87.

As for `CN(C)C/C=C/C(=O)N1CCc2c(sc3ncnc(Nc4ccc5c(ccn5Cc5cccc(F)c5)c4)c23)C1` [Example 98, 7-[(2E)-4-(dimethylamino)but-2-enoyl]-N-[1-(3-fluorobenzyl)-1H-indol-5-yl]-5,6,7,8-tetrahydropyrido [4′,3′:4,5]thieno[2,3-d]pyrimidin-4-amine], the figures for the IC50 in the experiment on H1975 cells, in the experiment with A431 cells and with N87 were under 200 nM, 200 to 1000 nM and under 200 nM, respectively.
